Results published in patent publication US12358902B2, “5-(2,5-bis(4-chloro-2-isopropylphenyl)thiophen-3-yl)-1H-tetrazole for the topical treatment of bacterial infections” (DENOVAMED INC., priority 2017, dated 2025).

How the values were obtained:
Clostridium spp. = assay: activity against Clostridium spp.; format: cell-based
fatty acid synthase = assay: in vitro enzyme assay, selectivity; format: biochemical; conditions: ACP utilizing bacterial enzyme
[1] = system: mupirocin resistant strains of S. epidermidis; assay: activity against mupirocin resistant strains; format: cell-based
MRSA (ATCC #33591) = assay: rabbit ischemic wound model; format: in vivo, New Zealand white rabbits
Method: 5-(2,5-bis(4-chloro-2-isopropylphenyl)thiophen-3-yl)-1H-tetrazole was tested for its efficacy against infection in the rabbit ischemic wound model, the gold standard animal model mimicking human DUI. In this model, the ear is made ischemic by division of central and rostral nutrient arteries of New Zealand white rabbits. New Zealand White rabbits were employed for this study and their husbandry and experimental manipulation adhered to standard Guides for the Care and Use of Laboratory Animals (2001). An incision was made to the level of bare cartilage at the base of the ear and followed by injection intradermally with epinephrine to obtain vasoconstriction and aid with skin detachment. Skin is separated from the underlying perichondrium and removed with a 6.0 mm aortic biopsy punch. Food and water were given ad libidum and animals were acclimatized for 7 days with photoperiods of alternating 12 h light and dark provided, along with analgesic (BUPRENEX™ (buprenorphine) 0.02 mg/kg sc) and anaesthesia (isoflurane (0.5-5% with oxygen carrier 0.5-2 L/min) during procedures.
An ischemia wound healing model was conducted surgically. Each wound was inoculated with 50 μl of 2×10^7 CFU/ml MRSA (ATCC #33591) and dressed. After one day, wounds were treated with either 50 μl control cream containing vehicle (N=4), 50 μl containing mupirocin (N=4), or 50 μl cream containing 5-(2,5-bis(4-chloro-2-isopropylphenyl)thiophen-3-yl)-1H-tetrazole (N=8) daily. Clinical observations were performed on days 1, 3, 5, 7, 10 and 14. Wounds were assessed and observations recorded using the Draize scoring system. Digital photographs of each wound were obtained and documented.
On day 14 post-wounding, under anesthesia, the animals were euthanized with an intravenous injection of BEUTHANASIA-D™ ([…] and phenytoin sodium) at a dosage of 150 mg/kg of body weight. Specimens including the entire wound, along with approximately 2-3 mm of the normal unwounded skin margins were harvested. Each ear wound specimen was sectioned into halves. For one half of the wound, the wound was placed into a container with 10% neutral buffered formalin and processed for routine histological evaluation. Wound organization was scored for four parameters on a scale of 0-4 at the wound site for inflammation, granulation, angiogenesis, and epithelialization. Wounds were characterized in a blinded manner by a board certified member of the College of American Pathologists. The other half of the wound was weighed (mg) in a sterile Petri dish, then placed in a sterile disposable tissue grinder and homogenized for quantitative microbiology. The tube containing the ground tissue sample was filled with 5 ml 0.85% sterile saline. Five 1:10 serial dilutions were then prepared with 0.5 ml aliquots and 4.5 ml of sterile saline per aliquot. Subsequently, 0.1 ml of the homogenate and each dilution was drop plated on trypticase soy agar and placed in an incubator at 37° C. The number of viable organisms per wound was recorded as cfu/gram of tissue.

LpxA = LpxA (Escherichia coli, UniProt P0A722); assay: in vitro enzyme assay, selectivity; format: biochemical; conditions: ACP utilizing bacterial enzyme
[2] = topical daily, day 14, compared to the control

Chain of LpxA (P0A722 whole entry): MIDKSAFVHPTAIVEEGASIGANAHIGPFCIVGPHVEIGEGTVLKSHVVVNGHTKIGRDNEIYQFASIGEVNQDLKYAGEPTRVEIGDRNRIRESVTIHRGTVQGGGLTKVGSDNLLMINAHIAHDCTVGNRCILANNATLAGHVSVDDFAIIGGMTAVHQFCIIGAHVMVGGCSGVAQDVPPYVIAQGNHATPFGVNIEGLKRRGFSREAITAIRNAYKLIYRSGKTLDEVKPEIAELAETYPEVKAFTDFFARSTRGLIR

Compound: CC(C)c1cc(Cl)ccc1-c1cc(-c2nnn[nH]2)c(-c2ccc(Cl)cc2C(C)C)s1 [Test Article, 5-(2,5-bis(4-chloro-2-isopropylphenyl)thiophen-3-yl)-1H-tetrazole]
- activity (Clostridium spp.): retained activity
- inhibition of fatty acid synthase (fatty acid synthase): did not inhibit
- activity [1]: retained activity
- percent wound contraction over time (FIG. 1) (MRSA (ATCC #33591); topical daily to day 14, p<0.001 vs control, p<0.03 vs mupirocin): better than the mupirocin treated group
- effect on erythema and edema (MRSA (ATCC #33591); topical daily, Draize scoring): positive effect
- CFU drop (MRSA (ATCC #33591); [2]): 4 log
- reduction in bacterial survival (MRSA (ATCC #33591); [2]): > 99%
- wound healing and epithelialization (MRSA (ATCC #33591); topical daily, versus mupirocin group): significantly better than the mupirocin group
- inhibition of LpxA (LpxA): did not inhibit
